Assay results: paper PMC8048568, “Synthesis of σ Receptor Ligands with a Spirocyclic System Connected with a Tetrahydroisoquinoline Moiety via Different Linkers” (Chemmedchem, 2021)
Like-named read-outs stand apart in the source and are kept apart here.

Experiments:
σ1 receptor [1] = target: σ1 receptor (Cavia porcellus, UniProt Q60492); experiment: σ1 receptor competitive radioligand binding assay with [3H]-(+)-pentazocine; details: for inhibition at 1 µM: read-out: inhibition of the radioligand, σ1; for Ki: K i [nM]±SEM σ1, [3H]-(+)-pentazocine, guinea pig brain homogenate, mean of 3 experiments
σ2 receptor = target: T1, σ2 receptor (Rattus norvegicus, UniProt Q5U3Y7); experiment: σ2 receptor competitive radioligand binding assay with [3H]DTG, σ1 masked with (+)-pentazocine; details: for inhibition at 1 µM: read-out: inhibition of the radioligand, σ2, 1 μM of the test compound; for inhibition at 1 µM / inhibition of the radioligand, σ2: [3H]DTG, rat liver; for Ki: K i [nM]±SEM σ2, [3H]DTG, rat liver homogenate, mean of 3 experiments; for inhibition of the radioligand, σ2: 1 μM of the test compound, 1 µM
T1 sequence (Q5U3Y7 1-176): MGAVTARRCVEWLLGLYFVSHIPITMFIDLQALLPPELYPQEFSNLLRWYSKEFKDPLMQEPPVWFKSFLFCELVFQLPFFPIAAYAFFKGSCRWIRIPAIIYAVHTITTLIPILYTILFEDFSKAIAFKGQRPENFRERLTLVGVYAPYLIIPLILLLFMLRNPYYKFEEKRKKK

σ1 receptor [2] = details: cited from earlier work

Sequence of σ1 receptor (Cavia porcellus, UniProt Q60492) (Q60492 whole entry): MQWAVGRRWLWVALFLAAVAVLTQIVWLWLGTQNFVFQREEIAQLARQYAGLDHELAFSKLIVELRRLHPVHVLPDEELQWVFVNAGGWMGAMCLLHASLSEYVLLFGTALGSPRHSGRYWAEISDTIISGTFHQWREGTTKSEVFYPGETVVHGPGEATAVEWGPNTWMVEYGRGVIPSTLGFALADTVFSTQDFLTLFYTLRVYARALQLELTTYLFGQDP

Work on `COc1cc2c(cc1OC)CN(CC(=O)NC1CCC3(CC1)OC(OC)Cc1ccccc13)CC2` (stereo not drawn) [trans‐26, trans‐2‐(6,7‐Dimethoxy‐3,4‐dihydroisoquinolin‐2(1H)‐yl)‐N‐(3‐methoxy‐3,4‐dihydrospiro[[2]benzopyran‐1,1′‐cyclohexan]‐4′‐yl)acetamide] yielded an inhibition at 1 µM (σ1 receptor [1]) of 7% and an inhibition at 1 µM (σ2 receptor) of 4%.

For `COc1cc2c(cc1OC)CN(C(=O)CN1CCC3(CC1)OC(OC)c1ccccc13)CC2` (centres unmarked) [Compound 23, 1‐(6,7‐Dimethoxy‐3,4‐dihydroisoquinolin‐2(1H)‐yl)‐2‐{3‐methoxy‐3H‐spiro[[2]benzofuran‐1,4′‐piperidin]‐1′‐yl}ethan‐1‐one], the inhibition at 1 µM (σ1 receptor [1]) was 0% and the inhibition at 1 µM (σ2 receptor) was 0%.

Compound `COc1cc2c(cc1OC)CN(CC(=O)N1CCC3(CC1)OC(OC)c1ccccc13)CC2` (centres unmarked) [Compound 28, 2‐(6,7‐Dimethoxy‐3,4‐dihydroisoquinolin‐2(1H)‐yl)‐1‐{3‐methoxy‐3H‐spiro[[2]benzofuran‐1,4′‐piperidin]‐1′‐yl}ethan‐1‐one] has an inhibition at 1 µM (σ1 receptor [1]) of 19% and a Ki (σ2 receptor) of 3400 nM.

With `COc1cc2c(cc1OC)CN(CC(=O)N1CCC3(CC1)OC(OC)Cc1ccccc13)CC2` (centres unmarked) [Compound 25, 2‐(6,7‐Dimethoxy‐3,4‐dihydroisoquinolin‐2(1H)‐yl)‐1‐(3‐methoxy‐3,4‐dihydrospiro[[2]benzopyran‐1,4′‐piperidin]‐1′‐yl)ethan‐1‐one] the Ki (σ1 receptor [1]) was 518 nM and the Ki (σ2 receptor) was 534 nM.

For `COc1cc2c(cc1OC)CN(C(=O)CNC1CCC3(CC1)OC(OC)c1ccccc13)CC2` (stereo not drawn) [trans‐24, trans‐1‐(6,7‐Dimethoxy‐3,4‐dihydroisoquinolin‐2(1H)‐yl)‐2‐[N‐(3‐methoxy‐3H‐spiro[[2]benzofuran‐1,1′‐cyclohexan]‐4′‐yl)amino]ethan‐1‐one], the inhibition at 1 µM (σ1 receptor [1]) was 15% and the “inhibition of the radioligand, σ2” value (σ2 receptor) was 0%.

Compound `COc1cc2c(cc1OC)CN(C(=O)CN1CCC3(CC1)OC(OC)Cc1ccccc13)CC2` (centres unmarked) [Compound 21, 1‐(6,7‐Dimethoxy‐3,4‐dihydroisoquinolin‐2(1H)‐yl)‐2‐{3‐methoxy‐3,4‐dihydrospiro[[2]benzopyran‐1,4′‐piperidin]‐1′‐yl}ethan‐1‐one] has a Ki (σ1 receptor [1]) of 319 nM and an inhibition at 1 µM (σ2 receptor) of 19%.

Compound `COc1cc2c(cc1OC)CN(C(=O)CNC1CCC3(CC1)OC(OC)Cc1ccccc13)CC2` (stereo not drawn) [cis‐22, cis‐1‐(6,7‐Dimethoxy‐3,4‐dihydroisoquinolin‐2(1H)‐yl)‐2‐[N‐(3‐methoxy‐3,4‐dihydrospiro[[2]benzopyran‐1,1′‐cyclohexan]‐4′‐yl)amino]ethan‐1‐one] has a Ki (σ1 receptor [1]) of 740 nM and an inhibition at 1 µM (σ2 receptor) of 11%.

Compound `COc1cc2c(cc1OC)CN(CCNC1CCC3(CC1)OC(OC)Cc1ccccc13)CC2` (stereo not drawn) [trans‐31, trans‐N‐[2‐(6,7‐Dimethoxy‐3,4‐dihydroisoquinolin‐2(1H)‐yl)ethyl]‐3‐methoxy‐3,4‐dihydrospiro[[2]benzopyran‐1,1′‐cyclohexan]‐4′‐amine] has a Ki (σ1 receptor [1]) of 1400 nM and a Ki (σ2 receptor) of 499 nM.

`COc1cc2c(cc1OC)CN(CCCC(=O)NC1CCC3(CC1)OC(OC)Cc1ccccc13)CC2` (stereo not drawn) [cis‐27, cis‐4‐(6,7‐Dimethoxy‐3,4‐dihydroisoquinolin‐2(1H)‐yl)‐N‐(3‐methoxy‐3,4‐dihydrospiro[[2]benzopyran‐1,1′‐cyclohexan]‐4′‐yl)butanamide] gave a Ki (σ1 receptor [1]) of 712 nM and a Ki (σ2 receptor) of 2100 nM.

For `Fc1ccc(-n2cc(CCCCN3CCC4(CC3)OCc3ccccc34)c3ccccc32)cc1` [siramesine], the Ki (σ1 receptor [2]; read-out: K i σ1 receptor) is listed as 17 nM.

Compound `COc1cc2c(cc1OC)CN(CCNC1CCC3(CC1)OC(OC)Cc1ccccc13)CC2` (stereo not drawn) [cis‐31, cis‐N‐[2‐(6,7‐Dimethoxy‐3,4‐dihydroisoquinolin‐2(1H)‐yl)ethyl]‐3‐methoxy‐3,4‐dihydrospiro[[2]benzopyran‐1,1′‐cyclohexan]‐4′‐amine] has a Ki (σ1 receptor [1]) of 251 nM and a Ki (σ2 receptor) of 200 nM.

`COc1cc2c(cc1OC)CN(CC(=O)NC1CCC3(CC1)OC(OC)c1ccccc13)CC2` (stereo not drawn) [trans‐29, trans‐2‐(6,7‐Dimethoxy‐3,4‐dihydroisoquinolin‐2(1H)‐yl)‐N‐(3‐methoxy‐3H‐spiro[[2]benzofuran‐1,1′‐cyclohexan]‐4′‐yl)acetamide] showed a Ki (σ1 receptor [1]) of 1300 nM and a Ki (σ2 receptor) of 1900 nM.

Work on `COc1cc2c(cc1OC)CN(CC(=O)NC1CCC3(CC1)OC(OC)Cc1ccccc13)CC2` (stereo not drawn) [cis‐26, cis‐2‐(6,7‐Dimethoxy‐3,4‐dihydroisoquinolin‐2(1H)‐yl)‐N‐(3‐methoxy‐3,4‐dihydrospiro[[2]benzopyran‐1,1′‐cyclohexan]‐4′‐yl)acetamide] yielded a Ki (σ1 receptor [1]) of 1000 nM and a Ki (σ2 receptor) of 371 nM.

`COc1cc2c(cc1OC)CN(CCN1CCC3(CC1)OC(OC)Cc1ccccc13)CC2` (centres unmarked) [Compound 30, 1′‐[2‐(6,7‐Dimethoxy‐3,4‐dihydroisoquinolin‐2(1H)‐yl)ethyl]‐3‐methoxy‐3,4‐dihydrospiro[[2]benzopyran‐1,4′‐piperidine]] showed a Ki (σ1 receptor [1]) of 608 nM and a Ki (σ2 receptor) of 348 nM.

In the case of `COc1cc2c(cc1OC)CN(C(=O)CNC1CCC3(CC1)OC(OC)c1ccccc13)CC2` (stereo not drawn) [cis‐24, cis‐1‐(6,7‐Dimethoxy‐3,4‐dihydroisoquinolin‐2(1H)‐yl)‐2‐[N‐(3‐methoxy‐3H‐spiro[[2]benzofuran‐1,1′‐cyclohexan]‐4′‐yl)amino]ethan‐1‐one], the Ki (σ1 receptor [1]) is reported as 1600 nM and the “inhibition of the radioligand, σ2” value (σ2 receptor) is reported as 9%.

Work on `COc1cc2c(cc1OC)CN(CC(=O)NC1CCC3(CC1)OC(OC)c1ccccc13)CC2` (stereo not drawn) [cis‐29, cis‐2‐(6,7‐Dimethoxy‐3,4‐dihydroisoquinolin‐2(1H)‐yl)‐N‐(3‐methoxy‐3H‐spiro[[2]benzofuran‐1,1′‐cyclohexan]‐4′‐yl)acetamide] yielded a Ki (σ1 receptor [1]) of 129 nM and an inhibition at 1 µM (σ2 receptor) of 0%.
